Laboratory results taken from PubChem BioAssay AID1671224.

Target: Tyrosine-protein kinase BTK (Homo sapiens) (UniProt Q06187)
Assay: inhibitors of human BTK tyrosine kinase activity – biochemical, Z'-LYTE, FRET readout, direct format, dose response (AID 1671224)
Settings: recombinant BTK, Z'-LYTE FRET peptide phosphorylation

Tyrosine-protein kinase BTK (Homo sapiens), sequence (Q06187 whole entry, looked up): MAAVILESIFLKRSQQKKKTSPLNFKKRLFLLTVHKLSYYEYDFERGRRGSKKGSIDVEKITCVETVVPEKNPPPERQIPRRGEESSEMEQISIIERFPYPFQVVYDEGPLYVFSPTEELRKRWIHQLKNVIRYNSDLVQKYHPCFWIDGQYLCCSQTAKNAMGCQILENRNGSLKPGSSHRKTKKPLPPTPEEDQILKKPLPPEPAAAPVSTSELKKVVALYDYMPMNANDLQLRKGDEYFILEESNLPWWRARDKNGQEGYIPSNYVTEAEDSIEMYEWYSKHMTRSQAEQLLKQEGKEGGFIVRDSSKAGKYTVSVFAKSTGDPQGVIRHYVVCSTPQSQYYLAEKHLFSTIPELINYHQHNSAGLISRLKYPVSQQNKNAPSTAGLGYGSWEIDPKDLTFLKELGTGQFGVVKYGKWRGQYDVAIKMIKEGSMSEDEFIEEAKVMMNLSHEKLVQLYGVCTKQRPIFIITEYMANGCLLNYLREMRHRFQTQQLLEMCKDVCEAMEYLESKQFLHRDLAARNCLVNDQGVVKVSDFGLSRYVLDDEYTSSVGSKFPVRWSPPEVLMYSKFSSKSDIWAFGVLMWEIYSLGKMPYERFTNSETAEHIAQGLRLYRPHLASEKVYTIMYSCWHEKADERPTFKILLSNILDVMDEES

IC50: 3.61 µM
SMILES: COc1cc2ncnc(Nc3cccc(Cl)c3)c2cc1OC
